Earlier results in patent US7220859B2, “Bicyclic heterocycles as cannabinoid receptor modulators” (Bristol-Myers Squibb Company, priority 2005, dated 2007).

Details: 16 week trial period

Cc1c(C(=O)NN2CCCCC2)nn(-c2ccc(Cl)cc2Cl)c1-c1ccc(Cl)cc1 [SR-141716]
body weight in human subjects: dose-dependently reduced body weight
